Where two headings read alike, the source gives them in different places.

Results on two compounds are retold here after patent US4882347A, “"N-imidazolyl derivatives of bicyclic compounds and pharmaceutical compositions containing the same"” (Farmitalia Carlo Erba, S.r.l., priority 1987, dated 1989).

Experiment [1] has as its system spontaneous focal glomerulonephritis of the MNS rats. The experiment in a line: spontaneous focal glomerulonephritis in Milan Normotensive Strain (MNS) rats. In kind it is in vivo, rat. How it is done:
Moreover, in the spontaneous focal glomerulonephritis of the MNS rats, FCE 22178 was administered at the […] not treated group.
Sclerotic glomeruli show massive deposition of PAS-stained material.
Flattening and fusion of the foot processes, as well as formation of blebs and of electron dense lysosomes, together with the frequent detachment of the cell from the GMB is regarded to be related to the massive leakage of proteins through the glomerulus.

In another experiment the target is T1, glomerular TxA2 synthase (Rattus norvegicus, UniProt P49430).
T1 construct: from tissue; host or cells: isolated glomeruli of rat kidney (remnant kidney and sham operated rats)
T1 sequence (P49430 1-533): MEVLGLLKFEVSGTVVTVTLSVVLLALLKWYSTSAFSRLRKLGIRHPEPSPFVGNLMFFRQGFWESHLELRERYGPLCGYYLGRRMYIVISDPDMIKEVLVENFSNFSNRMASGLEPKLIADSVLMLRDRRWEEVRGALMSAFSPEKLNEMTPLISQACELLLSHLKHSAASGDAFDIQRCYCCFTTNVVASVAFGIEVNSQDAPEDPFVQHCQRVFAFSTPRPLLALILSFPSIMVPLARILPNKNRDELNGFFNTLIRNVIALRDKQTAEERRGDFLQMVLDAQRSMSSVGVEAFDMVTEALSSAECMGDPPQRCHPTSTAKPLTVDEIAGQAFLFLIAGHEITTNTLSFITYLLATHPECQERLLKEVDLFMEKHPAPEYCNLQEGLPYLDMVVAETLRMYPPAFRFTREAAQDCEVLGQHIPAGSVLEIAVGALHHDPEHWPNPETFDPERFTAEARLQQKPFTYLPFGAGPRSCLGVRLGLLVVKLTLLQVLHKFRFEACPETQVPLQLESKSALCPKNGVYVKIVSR
The experiment is described as follows: in vitro TxA2 synthase inhibiting activity in isolated glomeruli (TxB2 by RIA). The class given is biochemical. How it is done:
(§1) Charles River C.D. male rats of 6 weeks of age were used for this experiment. […] Four weeks after the second operation the blood pressure was measured and the rats were placed in metabolic cages for evaluation of proteinuria, measured by the method of Lowry. Only the animals with a blood pressure ≥170 mm Hg and an urinary protein excretion ≥100 mg/day were used. Comparative experiments were performed using sham operated rats. Also the in vitro TxA2 synthase inhibiting activities in serum and in isolated glomeruli were studied and compared. Glomerula preparation was performed according to the method previously described and TxB2 was measured by RIA.

The next experiment addresses T2, serum TxA2 synthase (Rattus norvegicus, UniProt P49430).
T2 construct: from tissue; host or cells: rat blood / serum (remnant kidney and sham operated rats)
T2 sequence (P49430 1-533): T1 sequence (P49430 1-533)
The experiment is described as follows: in vitro TxA2 synthase inhibiting activity in serum (TxB2 by RIA). The class given is biochemical. The protocol: as §1

Experiment [2] concerns doxorubicin induced nephrosis. The experiment is described as follows: doxorubicin induced nephrosis in rats (oral treatment). The class given is in vivo, rat. Particulars: 50 mg/kg b.i.d. oral. How it is done: The compound 1,2-dihydro-3-(1-imidazolyl)-6-carboxy-naphthalene (internal code FCE 22178) was orally administered, for doxorubicin induced nephrosis, to rats at a dosage of 50 mg/kg b.i.d. for 7 days starting from the 21st day after doxorubicin injection. A reduction in both proteinuria (from 1018±102 to 751±49 mg/24 h p<0.005) and creatinine serum levels (from 1.85±0.26 to 0.97±0.009 mg/dl p<0.001) was observed.
Moreover, in the spontaneous focal glomerulonephritis of the MNS rats, FCE 22178 was administered at the dosage of 50 mg/kg p.o. die+100 mg/kg/die in drinking water starting from the first month of age and all along the life of the animal and in comparison with a not treated group.
Compound 1,2-dihydro-3-(1-imidazolyl)-6-carboxynaphthalene, internal code FCE 22178, for instance, in this model at the oral dosage of 50 mg/kg b.i.d. for 7 days starting from the 21st after doxorubicin injection lowered triglycerides serum levels from 783±152 to 481.8±84 mg/dl.

Where [3] appears, read: glomeruli of RRM (remnant kidney) rats, read-out: IC50, glomerular TxB2 production.
The mark [4] stands for this setting: serum of RRM (remnant kidney) rats, read-out: IC50, serum TxB2 production / TxA2 synthesis.

Regarding `O=C(O)c1ccc2c(c1)C=C(n1ccnc1)CC2` [FCE 22178, 1,2-dihydro-3-(1-imidazolyl)-6-carboxynaphthalene], the “production of TxA2 (measured as TxB2 levels) in isolated glomeruli” value in experiment [1] (50 mg/kg p.o. die + 100 mg/kg/die in drinking water from first month of age, untreated 4.44±1.2 at 8 months, p<0.01) stood at 2.77±0.53 ng/mg prot. In addition, the TxB2 in urine result in experiment [1] (50 mg/kg p.o. die + 100 mg/kg/die in drinking water, pattern as in isolated glomeruli (greatly reduced)) was “The same pattern was observed in urine”. The compound also had a total cholesterol in experiment [1] (14 months old rats treated for 2 months, from 223±36) of 130.5 ± 12.2 mg/dL. Moreover, in experiment [1] (14 months old rats treated for 2 months, from 338.6±56), the phospholipids was determined as 197.8 ± 21 mg/dL. This compound had a triglycerides in experiment [1] (14 months old rats treated for 2 months, from 399.6±105) of 169.3 ± 26.1 mg/dL. Also, in experiment [1] (adult MNS rats, 50 mg/kg p.o. die + 100 mg/kg/die in drinking water, printed: 1210±38 in controls vs treated, p<0.01), the “glomerular filtration rate (GFR)” value came to 816±45 μl/min/g k.w. The proteinuria in experiment [1] (adult MNS rats, 50 mg/kg p.o. die + 100 mg/kg/die in drinking water, vs 428.8±42.3 in controls, p<0.01) amounted to 237±30.3 mg/24 h; in experiment [2] (7 days from 21st day after doxorubicin, from 1018±102, p<0.005), 751±49 mg/24 h. Besides, the “number of sclerotic glomeruli” value in experiment [1] (light microscopy, aged (14 months) MNS rats, control 27%, p<0.05) amounted to 22%. Moreover, the “entity of flattening and fusion of foot processes in non sclerotic glomeruli” value in experiment [1] (ultrastructural investigation, treated vs untreated MNS rats) is “definitly lower in treated animals”. The “selectivity for glomerular TxA2 synthase (vs serum)” value on glomerular TxA2 synthase (RRM rats, compared to OKYO46) is “greater selectivity for glomerular TxA2 synthase”. The IC50 on glomerular TxA2 synthase (setting [3]) amounted to 0.032 nM; at glomerular TxA2 synthase (glomeruli of control sham operated rats, read-out: IC5 (so in the source), glomeruli) it was 0.07 nM; on serum TxA2 synthase (setting [4]) it was 1.7 nM; at serum TxA2 synthase (serum of control sham operated rats, read-out: IC5 (so in the source), serum) it was 1 nM. This compound also had a creatinine serum levels in experiment [2] (7 days from 21st day after doxorubicin, from 1.85±0.26, p<0.001) of 0.97 ± 0.009 mg/dL. In experiment [2] (7 days from 21st day after doxorubicin, from 783±152), this compound gave a triglycerides serum levels of 481.8 ± 84 mg/dL. Moreover, in experiment [2] (7 days, from 20.3±2.5 ng/24 h), the “urine TxB2 levels” value is listed as “under the detection limit of the method”. In addition, the “serum TxB2 levels” value in experiment [2] (7 days, from 536±55 ng/ml) came to 92 ± 8.3 ng/mL.
Consider `Cl.O.O=C(O)/C=C/c1ccc(Cn2ccnc2)cc1` [OKYO46, (E)-3-[4-(1H-imidazol-1-ylmethyl)-phenyl]-2-propenoic acid monohydrochloride monohydrate, reference compound], for which the “selectivity glomeruli vs serum” value at glomerular TxA2 synthase (control sham operated rats) was “losed his selectivity”. For the same compound, the IC50 on glomerular TxA2 synthase (setting [3]) came to 0.09 nM; on glomerular TxA2 synthase (glomeruli of control sham operated rats, read-out: IC50, glomeruli) it was 1 nM; on serum TxA2 synthase (setting [4]) it was 0.6 nM; on serum TxA2 synthase (serum of control sham operated rats, read-out: IC50, serum) it was 50000 nM.
